Read-outs that look alike come from different tables or passages of the source.
Columns and labels:
female AML cells = assay: In vitro apoptosis of female AML cells (Annexin V staining); type: cell-based, mouse; conditions: Annexin V staining (FIG. 4B, 4C)
From the text: (§1) To obtain the results shown in FIG. 1, we isolated bone marrow cells from CD45.1 male mice (FIG. 1A) and CD45.1 female mice (FIG. 1B). Bone marrow cells were applied to hematopoietic stem/progenitor cell isolation using a kit (EasySep™ mouse hematopoietic progenitor cell isolation kit, […], Catalog #19856) followed by red blood cell lysis. Lineage negative (Lin^−) cells were stained with fluorescent antibodies including Sca-1 and c-Kit and then sent to a Beckman Coulter MoFlo Astrios EQ Cell Sorter for sorting Sca-1^+c-Kit^+ cells. These cells were cultured in a CO2 incubator at 37° C. in the presence of MLL-AF9 virus (for AML) for six hours and then injected retro-orbitally into CD45.2 recipient mice. Recipients received sublethal irradiation (475 rads) and 1.5˜3.5×10^5 Lin^−Sca-1^+c-Kit^+ hematopoietic stem cells (HSCs). Mice were monitored for complete cell counts by bleeding retro-orbitally one month post transplantation. Retro-orbital bleeding was performed weekly.
(§2) To obtain the results, isolated female AML cells were treated in vitro with PI3K inhibitors (LY294002 and Wortmannin), Akt inhibitor, MTOR inhibitors (Sapanisertib and Torin1).

female AML donor cells [1] = type: in vivo, mice
From the text: as §1
To test the effect of AR inhibition on the outcome of AML, we utilized the AR antagonist, ARN509, to treat female mice transplanted with female AML donor cells. (FIG. 7A) Following one week post-secondary) (2° transplantation of AML cells from female donors into female recipients, the recipient mice were treated with ARN509 (0, 10, 25 mg/kg/d, i.p. injection) daily for two weeks.

female AML donor cells [2] = assay: Survival of female recipients transplanted with female AML donors treated in vitro with ARN509; type: in vivo, mice; conditions: female AML donors treated in vitro with ARN509 150 nM, 24 h, transplanted into female recipients (FIG. 7J)
female AML donor cells [3] = type: in vivo, mice; remark: listed apart in the source
From the text: as §1
To address if ARN509 therapy preferentially benefitted AML in female mice, we performed an experiment in which male recipient mice transplanted with female AML donors cells were treated with AR antagonist, ARN509.
(FIG. 8A) Following one week post 2° transplantation of AML cells from female donors into male recipients, we treated the mice with ARN509 (0, 10, 25 mg/kg/d, i.p. injection) for two weeks.

female AML donor cells [4] = assay: Survival of male recipients transplanted with female AML donors treated in vitro with ARN509; type: in vivo, mice; conditions: female AML donors treated in vitro with ARN509 150 nM, 24 h, transplanted into male recipients (FIG. 8J)
female AML donor cells [5] = assay: In vivo ARN509 alone or combined with finasteride in male mice transplanted with female AML donor cells; conditions: single ARN509 10 mg/kg/d i.p. for two weeks; male recipients
Description: (FIG. 11A) At one week post 2° transplantation of female AML donors into male recipients, the mice were treated with vehicle (PBS), ARN509 (10 mg/kg/d, i.p. injection), or combination of ARN509 (10 mg/kg/d, i.p. injection) and finasteride (20 mg/kg/d, i.p. injection), for two weeks.

P70 S6K = assay: In vitro treatment of female AML cells: phosphorylation of downstream target P70 S6K; type: cell-based, mouse; conditions: isolated female AML cells treated in vitro (FIG. 4A)
From the text: as §1, §2

male AML donor cells = assay: In vivo finasteride treatment of male mice transplanted with male AML donor cells; conditions: for Survival: male AML donors (FIG. 10J)
From the text: as §1
(FIG. 10A) Upon 2° transplantation of male AML donors to male recipients, the recipient mice were treated with vehicle (PBS) or finasteride (50 mg/kg/d, i.p. injection) for one week. Then at three weeks post transplantation, mice were euthanized. […] Moreover, to observe the therapeutic effect of finasteride, we treated male recipients transplanted with male AML donors (mirroring the clinical patients) with in vivo finasteride for two weeks or extended it to four weeks (FIG. 10I). […] Thus, the disclosure includes adjusting the treatment period for male (and female) AML patients.

female AML donor cells [6] = assay: In vivo finasteride treatment of female mice transplanted with female AML donor cells
Description: To mirror the patient scenario, we performed the experiment on female recipients transplanted with female AML donor cells.
(FIG. 12A) At one week after 2° transplantation of female AML donors to female recipients, we treated the mice with vehicle (PBS) or finasteride (20 mg/kg/d, i.p. injection) for two weeks.

[7] = finasteride 50 mg/kg/d i.p. for one week, male recipients
[8] = finasteride 20 mg/kg/d i.p. for two weeks, female recipients

Compound: CNC(=O)c1ccc(N2C(=S)N(c3cnc(C#N)c(C(F)(F)F)c3)C(=O)C23CCC3)cc1F [ARN509, Apalutamide]
- Apoptosis of female AML cells (female AML cells): led to apoptosis of female AML cells
- Lin− leukemic cells in the bone marrow (female AML donor cells [1]; 25 mg/kg/d ARN509, female recipients (FIG. 7D)): decreased significantly
- Lin− leukemic cells in the spleen (female AML donor cells [1]; 25 mg/kg/d ARN509, female recipients (FIG. 7E)): decreased significantly
- LICs (leukemia-initiating cells) (female AML donor cells [1]; 25 mg/kg/d ARN509, female recipients (FIG. 7F, 7G)): decreased significantly
- Severity of AML (female AML donor cells [1]; ARN509 0, 10, 25 mg/kg/d i.p. daily for two weeks from one week post transplantation, female recipients): decreased the severity of AML in a dose-dependent manner
- Leukocytosis (female AML donor cells [1]; ARN509 0, 10, 25 mg/kg/d i.p., two weeks, female recipients (FIG. 7B)): improved leukocytosis
- Splenomegaly (female AML donor cells [1]; ARN509 0, 10, 25 mg/kg/d i.p., two weeks, female recipients (FIG. 7C)): improved
- Platelets in the peripheral blood (female AML donor cells [1]; mouse, in vivo): increase
- Side effects (female AML donor cells [1]; mouse, in vivo): no apparent side effects
- Survival (female AML donor cells [2]): significantly better survival
- Lin− leukemic cells in the bone marrow (female AML donor cells [3]; 25 mg/kg/d ARN509, male recipients (FIG. 8D)): decreased significantly
- Lin− leukemic cells in the spleen (female AML donor cells [3]; 25 mg/kg/d ARN509, male recipients (FIG. 8E)): decreased significantly
- LICs (leukemia-initiating cells) (female AML donor cells [3]; 25 mg/kg/d ARN509, male recipients (FIG. 8F, 8G)): decreased significantly
- Severity of AML (female AML donor cells [3]; ARN509 0, 10, 25 mg/kg/d i.p. for two weeks from one week post transplantation, male recipients): decreased the severity of AML in a dose-dependent manner
- Leukocytosis (female AML donor cells [3]; ARN509 0, 10, 25 mg/kg/d i.p., two weeks, male recipients (FIG. 8B)): improved leukocytosis
- Splenomegaly (female AML donor cells [3]; ARN509 0, 10, 25 mg/kg/d i.p., two weeks, male recipients (FIG. 8C)): improved
- Body weight (female AML donor cells [3]; mouse, in vivo): unchanged
- Platelets in the peripheral blood (female AML donor cells [3]; mouse, in vivo): increase
- Side effects (female AML donor cells [3]; mouse, in vivo): no apparent side effects
- Survival (female AML donor cells [4]): some improvement of survival
- Anti-leukemic effect (female AML donor cells [5]): not able to induce significant anti-leukemic effect

Compound: CCC(=O)N1CCN(c2ccc(-n3c(=O)ccc4cnc5ccc(-c6cnc7ccccc7c6)cc5c43)cc2C(F)(F)F)CC1 [Torin1]
- Phosphorylation of the downstream target P70 S6K (P70 S6K): down-regulated
- Apoptosis of female AML cells (female AML cells): induced apoptosis of female AML cells significantly

Compound: CC(C)(C)NC(=O)[C@H]1CC[C@H]2[C@@H]3CC[C@H]4NC(=O)C=C[C@]4(C)[C@H]3CC[C@]12C [finasteride, Finasteride]
- Generation of DHT (male AML donor cells; finasteride 50 mg/kg/d i.p. for one week, euthanized three weeks post transplantation (FIG. 10B)): decreased generation of DHT
- LICs in the bone marrow (male AML donor cells; [7]): decreased
- LICs in the spleen (male AML donor cells; [7]): decreased
- Lin− leukemic cells in the bone marrow (male AML donor cells; [7]): decreased
- Lin− leukemic cells in the spleen (male AML donor cells; [7]): decreased
- Leukocytosis (male AML donor cells; finasteride 50 mg/kg/d i.p. for one week, male recipients (FIG. 10C)): significantly improved
- Splenomegaly (male AML donor cells; finasteride 50 mg/kg/d i.p. for one week, male recipients (FIG. 10D)): significantly improved
- Survival (male AML donor cells; four-week in vivo finasteride treatment, male recipients): significantly improved the survival
- Survival (male AML donor cells; two-week in vivo finasteride treatment, male recipients): partially benefited the survival
- Leukocytosis (female AML donor cells [6]; finasteride 20 mg/kg/d i.p. for two weeks from one week after transplantation, female recipients (FIG. 12B)): significantly improve
- LICs in the bone marrow (female AML donor cells [6]; [8]): decreased
- LICs in the spleen (female AML donor cells [6]; [8]): decreased
- Lin− leukemic cells in the bone marrow (female AML donor cells [6]; [8]): decreased
- Lin− leukemic cells in the spleen (female AML donor cells [6]; [8]): decreased
- Splenomegaly (female AML donor cells [6]; finasteride 20 mg/kg/d i.p. for two weeks, female recipients (FIG. 12C)): significantly improve
- Survival (female AML donor cells [6]; in vivo finasteride treatment, female recipients, female AML donors (FIG. 12K)): benefitted the survival

From patent US20250268920A1, “USE OF ANDROGEN RECEPTOR-MEDIATED MECHANISMS IN THE TREATMENT OF ACUTE MYELOID LEUKEMIA” (The Penn State Research Foundation, priority 2022, published 2025)
